In the METLIN SMRT retention time set (Domingo-Almenara et al. 2019):

assay: gradient 5% acetonitrile 3 min, to 50% in 2 min, to 85% in 15 min, held 3 min, 100 µL/min; details: column: Zorbax Extend-C18 2.1 x 50 mm; eluents: water / acetonitrile, 0.1% formic acid
How it was run: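 Pure standards were analyzed in mixtures of ~100 molecules using HPLC coupled to a quadrupole time-of-flight mass spectrometer, in both positive and negative ionization mode. Separation used a Zorbax Extend-C18 column (2.1 × 50 mm, 1.8 μm) at 100 μL/min, with water and acetonitrile each containing 0.1% formic acid. Dead and dwell volumes were 40 μL and 900 μL, and data were collected over 3 months. Retention time was read from computationally picked adduct peaks, each inspected manually.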

Row | RP-LC retention time [s] | SMILES
1 | 881 | COc1ccccc1NC(=O)NC1CCN(c2cc(C)cc(C)c2)C1=O (stereo not given)
2 | 985 | COc1cc(-c2nc(-c3ccc4c(c3)oc(=O)n4C)no2)cc(OC)c1OC
3 | 762 | CCCn1ccc2sc(C)c(C(=O)N3CCN(c4ccc(OC)cc4)CC3)c2c1=O
4 | 979 | COc1ccc(Cl)cc1NC(=O)N(C)CCc1noc(COc2ccccc2F)n1
5 | 724 | Cc1noc(CNC(=O)COc2cccc3c2OC(C)(C)C3)n1
6 | 1010 | COc1cc(OC)cc(-c2nc(C3CC(=O)N(c4ccc(C)cc4)C3)no2)c1 (stereo not given)
7 | 721 | O=C(Cc1nnc(-c2ccc3ncccc3c2)o1)NCc1ccc(Cl)cc1
8 | 1020 | Cc1[nH]c(=O)nc(N/N=C/c2ccc(Cl)cc2)c1C(=O)Nc1ccc(Cl)cc1
9 | 628 | O=C(Cn1nc(-c2ccco2)ccc1=O)NCc1ccco1
10 | 750 | Cc1ccc(Nc2c(-c3cccc(O)c3)nc3cnccn23)c(C)c1
11 | 668 | O=C(Cn1nc2c(N3CCCCCC3)nccn2c1=O)Nc1ccc2c(c1)OCCO2
12 | 581 | CCC(C)NC(=O)N1CCN(Cc2nc3cc(C(=O)N4CCCC4)ccc3n2C)CC1 (stereo not given)
13 | 950 | Cc1cc(C)cc(NC(=O)c2[nH]c(C)c(S(=O)(=O)N3CCCC3)c2C)c1
14 | 645 | Cc1oc(-c2[nH]ncc2C(=O)N2CCOCC2)cc1S(=O)(=O)NCC(C)C
15 | 705 | CCCN1C(=O)NC2(CCN(C(=O)Nc3ccccc3C(F)(F)F)CC2)C1=O
16 | 896 | Cc1ccc(C)c(NC(=O)Cc2csc3nc(-c4ccc(C)c(C)c4)cn23)c1
17 | 845 | O=C(NCCCN1CCOCC1)c1c(O)c2cccc3c2n(c1=O)CC3
18 | 696 | COc1ccc(CNC(=O)c2ccc3c(c2)CC(=O)N3C)cc1
19 | 595 | CCOC(=O)C1=C(CN2CCN(C)CC2)NC(=O)NC1c1cccc(OC)c1OC (stereo not given)
20 | 824 | CCOC(=O)c1c(C)[nH]c(C(=O)N2CCC(CC(=O)NCc3cccc(Cl)c3)CC2)c1C

Row | RP-LC retention time [s] | SMILES
21 | 639 | COc1ccc(OC)c(CNC(=O)c2cn3c(n2)COCC3)c1
22 | 705 | O=C(Cn1cnc2nc(N3CCCC(C(=O)NC4CC4)C3)sc2c1=O)Nc1ccc(F)c(F)c1 (stereo not given)
23 | 783 | Cc1ccsc1C(=O)NCC1Cn2cccc2C(=O)N1CC(C)C (stereo not given)
24 | 559 | CNc1cc(C(N)=O)c2cccc(Cl)c2n1
25 | 927 | Cc1nc(C2(C)CCN(S(=O)(=O)c3ccc(F)c(C)c3)CC2)no1
26 | 756 | CCN1C(=O)c2cccnc2Sc2cc(NC(=O)c3ccc(OC)nc3)ccc21
27 | 605 | COc1ccc(Nc2c(C(=O)N3CCCCC3)cnc3nc(C)ccc23)cc1
28 | 926 | CCc1noc(-c2nc(-c3ccc(OC)c(F)c3)no2)n1
29 | 1180 | Cc1cccc(NS(=O)(=O)c2c(C)sc(C)c2-c2cc(C(F)(F)F)on2)c1
30 | 910 | CCC(CC)C(=O)Nc1nc(-c2ccc3c(c2)NC(=O)CO3)c(C)s1
31 | 808 | Cc1c(O)ccc2c1oc(=O)c1ccccc12
32 | 698 | Cc1cc(=O)n(CC(=O)Nc2cc(F)ccc2F)c(N2CCOCC2)n1
33 | 956 | Cc1ccc(Cl)cc1NC(=O)Cn1cccc1-c1nnc(C2CC2)o1
34 | 697 | CN(C)c1ccc(NC(=O)Cn2c(=O)cc(-c3nc(C4CC4)no3)c3ccccc32)cc1
35 | 661 | CCC(C)NC(=O)c1cc(=O)[nH]c2c(C)cccc12 (stereo not given)
36 | 984 | CN(C)c1nn(CC(=O)NCc2cccc(C(F)(F)F)c2)cc1-c1ccccc1
37 | 847 | Cc1ccc(CNC(=O)CNS(=O)(=O)c2cc(-c3noc(C)n3)sc2C)cc1
38 | 815 | CCOc1cc(=O)n2c(c1C(=O)Nc1ccc3c(c1)CCC3)CCCC2
39 | 1240 | CCc1ccc(-c2csc(NC(=O)Cc3csc(-c4ccccc4)n3)n2)cc1

Second part, the compound before the results:

Row | SMILES | RP-LC retention time [s]
40 | O=C(NCCc1csc(-c2cccs2)n1)C1CCN(C(=O)COc2ccccc2)CC1 | 783
41 | CCOc1ccc(-n2c(=O)c3sccc3n(Cc3nc(-c4ccccc4Cl)no3)c2=O)cc1 | 1020
42 | O=c1c2ccccc2ncn1Cc1noc(Cc2ccc(Br)cc2)n1 | 871
43 | CC(C)NC(=O)c1ccc(OCC2CCCN(C(=O)c3c(F)cccc3F)C2)cc1 (stereo not given) | 841
44 | CCCCN1CCN(C(=O)CCC2CCCN(c3cc(NC4CC4)ncn3)C2)CC1 (stereo not given) | 565
45 | Cc1ccc(N2C(=O)N(CC(=O)N3CCCCC3C)C3CS(=O)(=O)CC32)cc1Cl (stereo not given) | 851
46 | Cc1cnn(CC(=O)N2CCc3nn(CC4CC4)c(=O)n3CC2)c1 | 617
47 | Cc1cc(C)n(-c2ccnc(N3CCN(c4ccccc4F)CC3)n2)n1 | 1220
48 | O=C(NCc1ccc(N2CCCCCC2)nc1)c1cncc(Br)c1 | 603
49 | CC1CCCCN1CCNC(=O)c1cc(S(=O)(=O)N2CCCCC2)ccc1Cl (stereo not given) | 651
50 | Cc1ccc(-c2cc3c4nnc(SCC(=O)NC5CCCCC5)n4ccn3n2)cc1C | 978
51 | CNC(=O)c1ccc(-c2nc3cc(NS(=O)(=O)c4ccccc4F)ccc3n2C)cc1 | 616
52 | CC(NC(=O)c1ccncc1)C(=O)Nc1nc2ccccc2[nH]1 (stereo not given) | 566
53 | Cc1cnn(CCC(=O)N2CCCCCCNC(=O)[C@@H]3CCCC[C@@H]32)c1 | 728
54 | CCn1nc(C)c(-c2cc(C(=O)O)[nH]n2)c1C | 589
55 | COC(=O)c1c(C)[nH]c(C(=O)N2CCC(CC(=O)NCCN3CCCCC3C)CC2)c1C (stereo not given) | 592
56 | CNC(=O)c1cnn(-c2cccc(C)c2)c1-n1cccc1 | 804
57 | CC(=O)N1CCN(c2nc(C)cc(N3CCCCC3)n2)CC1 | 598
58 | CC1=C(c2ccc(C)cc2)S(=O)(=O)N=C1N1CCCN(C(=O)Nc2ccccc2)CC1 | 846
59 | NC(=O)[C@@H]1C[C@H](Oc2ccccc2)CN1C1CCCC1 | 584
60 | COc1cc(CNC(=O)c2cccc3c2CCN3C(=O)C2CC2)cc(OC)c1 | 809
61 | Cc1nnc2n1CCC(NC(=O)c1ccsc1)CC2 (stereo not given) | 559
62 | Cc1cnc(C(=O)NC2C[C@H]3CC[C@@H](C2)N3S(=O)(=O)c2c(C)noc2C)cn1 (stereo not given in full) | 726
63 | O=c1[nH]c2ccc(S(=O)(=O)N3CCN(c4nc5ccccc5[nH]4)CC3)cc2o1 | 522
64 | CCc1ccc(OCC(=O)Nc2ccc(S(N)(=O)=O)cc2)c(Br)c1 | 836
65 | c1nc(NC2CCCCCC2)c2[nH]cnc2n1 | 564

Row | SMILES | RP-LC retention time [s]
66 | O=C(CN1C(=O)CC(c2cccs2)=Nc2ccccc21)Nc1ccccc1Cl | 980
67 | O=C(Nc1cccc(F)c1)C1CCCN(S(=O)(=O)c2cc(-c3noc(C4CCC4)n3)cs2)C1 (stereo not given) | 1190
68 | O=C(c1nnc(-c2ccc(S(=O)(=O)N3CCCCC3)cc2)o1)N1CCCCCC1 | 1010
69 | COc1cc(NS(=O)(=O)c2cc3n(c2)CCN(C)C3=O)cc(OC)c1 | 671
70 | Cn1c(N2CCCC(C(=O)N3CCN(c4ccc(Cl)cc4)CC3)C2)cc(=O)n(C)c1=O (stereo not given) | 800
71 | COC(=O)c1ccc(C(=O)NCCN2CCN(c3ccc(F)cc3)CC2)cc1 | 576
72 | O=C(NC1CCCCC1)c1csc(N2CCN(c3ccccc3)CC2)n1 | 1160
73 | CCOC(=O)c1[nH]c(C)c(CCC(=O)N2CCC(C(=O)NC(C)CC)CC2)c1C (stereo not given) | 723
74 | NC(=O)C1(N2CCCCC2)CCN(c2ncc(S(=O)(=O)c3ccccc3)c(N)n2)CC1 | 588
75 | Cc1ccccc1N1CCN(C(=O)c2cn(-c3cc(N4CCSCC4)ncn3)cn2)CC1 | 1040
76 | Cc1noc(C)c1C(=O)N1CC(c2nc(CCOC3CCCC3)no2)C1 | 788
77 | Cc1noc(-c2nc(-c3cccc(Cl)c3)no2)n1 | 1070
78 | CCOc1nccnc1NC1CCN(C(=O)c2ccco2)CC1 | 585
79 | CN(C(=O)Cn1cncc(C(=O)NC2CCCC2)c1=O)c1ccccc1 | 767
80 | COc1ccc(-n2nc3c(c2N)CSC3)cc1 | 629
81 | CCCCCCNC(=O)C1CCCN(c2ncc(-c3ccc(F)cc3)cn2)C1 (stereo not given) | 1160
82 | Cn1nc(CNC(=O)C2(C)CCCCC2)c2c1CCN(S(C)(=O)=O)C2 | 702
83 | CC(Oc1ccccc1)c1nc(-c2ccc3c(c2)ncn3CCC(=O)N2CCCC2)no1 (stereo not given) | 751
84 | COC(=O)c1ccc2c(=O)n(-c3cccc(Cl)c3)c(N3CCN(c4ccccn4)CC3)nc2c1 | 744
85 | COC(=O)c1ncn2c1C(=O)N(Cc1ccc(F)cc1)C(C)(C(=O)NCc1ccccc1)C2 (stereo not given) | 714
86 | COc1ccc(C(C)NC(=O)C2=C3CCCN3c3ccc(F)cc3S2(=O)=O)cc1 (stereo not given) | 899
87 | CCC1=C(c2ccc(C)cc2)S(=O)(=O)N=C1N1CCC(C(=O)N2CCN(C)CC2)CC1 | 641
88 | O=S(=O)(c1ccc2c(c1)CCCC2)N1CCCC1c1nc(-c2ccc(F)cc2)no1 (stereo not given) | 1290
89 | CN1CCN(S(=O)(=O)c2cccc(C#N)c2)CC1c1ccc(F)cc1 (stereo not given) | 579
90 | COc1cccc(-c2nnc(SCC(=O)NCc3cccnc3)n2-c2ccccc2)c1 | 573
